Measured values: patent US9675607B2, “Epimorphic regeneration and related hydrogel delivery systems” (Northwestern University, priority 2013, dated 2017)
Entries after “also recorded” stand apart in the source; their conditions may differ.

Key:
3T3 fibroblasts = assay: Cell viability, ISO 10993 neutral red; assay type: cell-based; settings: 24 hours, positive control
Protocol: Viability of 3T3 fibroblasts exposed to drug microcrystals was quantified using ISO 10993. Briefly, different dilutions of drug microcrystals in cell culture medium were added to a subconfluent monolayer of 3T3 fibroblasts (n=3). The cells were cultured for 24 hours at 37° C., 5% CO2, and >90% RH and then washed with PBS. Neutral red solution (0.4%) in DMEM was added, and the cells were stained for 3 hours. Following removal of the staining solution and washing the cells with PBS, the cells were destained using 50% ethanol, 49% ddH2O and 1% glacial acetic acid. Following 10 minutes of agitation, absorbance was measured at 540 nm and used to quantify cell viability. […] Culture medium was used as a negative control. Cell culture medium consisted of high glucose DMEM substituted with L-glutamine, penicillin/streptomycin, 10% v/v newborn calf serum and 20 mM HEPES.

diabetic wound = settings: applied directly to the wound site; cited from earlier work
SW ear tissue = assay: Histology, immunostaining and qPCR of injured ear tissue of SW mice; assay type: in vivo, mouse
Protocol: (§1) Total RNA from ear fibroblast-like cells or ear hole donuts was prepared with Qiagen RNeasy kit (Qiagen) according to the manufacturer's guidelines. First strand cDNA was synthesized from 1 μg of RNA using the Superscript First-Strand Synthesis System (Invitrogen, Carlsbad, Calif.) according to the manufacturer's instructions. qPCR was performed with SYBR green PCR Master Mix (Applied Biosystems, Life Technologies). In brief, a 20 μl mixture was used containing 10 μl SYBR Green PCR master mix, 1 μl forward and reverse primer, 6 μl sterile water, and 2 μl of complementary DNA template. A negative control (non-template control) was performed in each run. The real-time PCR was performed using a Quant Studio 6 Flex (Applied Biosystems) according to the manufacturer's instructions. All data were normalized to 18S rRNA and quantitative measurements were obtained using the ΔΔCT method. (The primers used are listed with the kit, but not shown, here.
The methods used were performed as previously described. Tissue from normal ears were fixed with Prefer fixative (the active ingredient is glyoxal) (Anatech) overnight and then washed in H2O. Tissue was embedded in paraffin and 5-μm thick sections cut. Before staining, slides were dewaxed in xylene and rehydrated. Antigen retrieval was performed by autoclaving for 20 min in 10 mM Sodium Citrate, pH 6.0. Tissue sections were then treated with 3% H2O2 and nonspecific binding was blocked with 4% BSA (A7906; Sigma) for 1 h. For immunocytochemistry staining, primary ear skin fibroblasts were grown on coverslips in DMEM with 10% FBS at 37° C. in a humidified 5% CO2 incubator. The coverslips were rinsed with 1×PBS, the cells were fixed in cold methanol (−20° C.) for 10 min, rinsed with 1×PBS, treated with 0.1% Triton-X100, and then incubated with the appropriate primary and secondary antibodies (Table 1). Photomicrographs were produced using the fluorescent microscope (Olympus AX70) and a Spot camera with bundled software.
For histological stains, tissue sections were treated the same as above and then stained with Hematoxylin (Leica Microsystems, #3801562) and Eosin (Leica Microsystems, #3801602), Picro-Sirius Red (Poly Scientific, cat. # s2365), Alcian blue (1% in 3% acetic acid (Polyscience, Bay Shore, N.Y., cat # S111A), or toluidine blue O (Allied Chemical, Morristown, N.J., cat. # NA0652), counterstained with Kernechtrot (Polyscience, Bay Shore, N.Y., cat # S248). The slides were washed, […], cleared with Xylene and coverslipped with Permount mounting media (Fisher, SP15-500). Staining was visualized using an Olympus (AX70) microscope in bright field for H&E and under polarized light for Picro-Sirius Red.
For quantitation of IHC signal, the method used was previously described. Briefly, we used ImagePro v4.0 for image analysis by selecting positive staining from multiple areas in the sections. The number of “positive staining” pixels was determined. The area was expressed in square microns and the final data were expressed as IHC staining signal per square micron. The mean of 2-6 samples were plotted and standard errors calculated.

Swiss Webster (SW) mice = assay: Ear hole closure in ear-punched Swiss Webster mice; assay type: in vivo, mouse; settings: SW mice given 2 mg/ml drug/gel 3 times plus the inhibitor
Description: Inbred mouse strains were used to study the effect of a small molecule inhibitor of PHD on in-vitro and in-vivo levels of HIF1a, and the impact of this on quantitative regenerative ear hole closure phenotypes. In animal studies, 2.1 mm ear hole punch wounds were created and a 1,4-DPCA-containing hydrogel was subcutaneously implanted in the back of the neck of mice at multiple time-points. Healing was monitored by measuring hole diameters. Endpoints of the study were previously determined to be 30+ days post-injury and included key indices of tissue regeneration such as blastema formation, epithelial, dermal, and cartilaginous wound closure with hair follicle replacement plus multiple molecular markers of cellular de-differentiation, re-differentiation, and stem cell state. These parameters were determined by physical measurements of wound closure, standard tissue histology and histomorphometry, and gene expression using quantitative immunohistochemistry, western analysis, and qPCR. The experimental groups were coded and different laboratory personnel were involved in injuries, injections, phenotyping and data analysis. […]

[1] = test system: hydroxylases (PHDs and FIH); settings: cited from earlier work
HIF1a = HIF1a levels in injured ear tissue of SW mice after subcutaneous drug/gel injection (Western, IHC); assay type: in vivo, mouse; settings: single 100 ul injection, 2 mg/ml drug microcrystals; Western and IHC
Protocol: The kinetics of the effectiveness of the drug/gel construct in the injured ear was examined to determine how often re-injection would be necessary. After earpunching, a single injection (100 ul) of hydrogel containing either 2 mg/ml drug microcrystals (Gd) or 0 mg/ml drug microcrystals (G0) was given plus an un-injected group. Ears were harvested daily for 5 days (FIG. 3D).
(§2) Ear tissue samples (3 ear hole donuts/ear from 3 separate mice) were homogenized in radio-immunoprecipitation assay buffer (50 mM Tris-HCl pH 7.6, containing 150 mM NaCl,1% Triton X-100, 1% sodium deoxycholate, 1 mM EDTA and 0.1% SDS) with 1 mM PMSF and a protease inhibitor cocktail (Sigma). Samples with equal amounts of protein (about 40 μg) were loaded into a NuPAGE 4-12% Bis-Tris gradient gel or 8% Bis-Tris gel (Life Technologies, Grand Island, N.Y.), electrophoresed and then electro-transferred onto a PVDF-FL membrane (Immobilon, Billerica, Mass.).
The methods used were performed as previously described. […]
For quantitation of IHC signal, the method used was previously described. […] The number of “positive staining” pixels was determined. The area was expressed in square microns and the final data were expressed as IHC staining signal per square micron. The mean of 2-6 samples were plotted and standard errors calculated. […]

Solubility of 1,4-DPCA = assay type: physicochemical
collagen hydroxylation = settings: rats given this compound; cited from earlier work
[2] = test system: HIF target gene transcription; assay: RT-PCR of HIF target gene transcription in treated B6 cells; assay type: cell-based, mouse
Protocol: as §1

prolyl 4-hydroxylase = settings: cited from earlier work
HIF2a = HIF2a levels in injured ear tissue of SW mice (Western); assay type: in vivo, mouse
Protocol: as §2
Mice were injected subcutaneously at the base of the neck with 100 μL of 10% (w/v) 1:1 (w/w) ratio of P8Cys (with or without 1,4-DPCA drug crystal) to P8NHS hydrogel prepared in PBS. Each component was kept cold and mixed just prior to injection. At different time points, mice were euthanized and tissues were removed for protein and RNA analysis.

[3] = day 7, 1,4-DPCA drug/gel-treated SW mice plus inhibitor

CCCCCCCCCCCCOS(=O)(=O)[O-].[Na+] [SDS]
IC50, cell viability (3T3 fibroblasts): in the acceptable range

COC(=O)CNC(=O)C(=O)OC [DMOG, dimethyloxallyl glycine]
diabetic wound healing (diabetic wound): enhance diabetic wound healing

CC(=O)N(O)CCCCCNC(=O)CCC(=O)N(O)CCCCCNC(=O)CCC(=O)N(O)CCCCCN [DFX, desferrioxamine B]
diabetic wound healing (diabetic wound): enhance diabetic wound healing

Endostatin
HIF1a, CD31 and OCT3/4 staining (SW ear tissue; [3]): near complete absence | MMP-9, MPO and neutrophil specific-marker (SW ear tissue; [3]): did not inhibit; also recorded: to a lesser degree | laminin staining (SW ear tissue; day 7, 1,4-DPCA drug/gel-treated SW mice, endostatin compared with siHif1a_3): greater degree of inhibition | effect on ear hole closure induced by 1,4-DPCA drug/gel (Swiss Webster (SW) mice): almost complete blockage of ear hole closure

O=C(O)c1c[nH]c2c(ccc3cccnc32)c1=O [1,4-DPCA, 1,4-dihydrophenonthrolin-4-one-3-carboxylic acid]
inhibition of the hydroxylases in-vitro and in-vivo at the protein level [1]: potent inhibitor | day on which HIF1a levels in the ear begin to rise (HIF1a): 1 days | days of peak HIF1a levels in the ear post-injection (HIF1a): 3 to 4 days | Laminin (basement membrane) in ear tissue (SW ear tissue; SW ear tissue, immunostaining): reduced | MMP9 in ear tissue (SW ear tissue; SW ear tissue, immunostaining): increased | inflammatory cell markers MPO and Ly6G in ear tissue (SW ear tissue; SW ear tissue, immunostaining): increased | solubility in water (Solubility of 1,4-DPCA): low solubility | collagen hydroxylation and collagen deposition (collagen hydroxylation): inhibition of collagen hydroxylation and a reduction in collagen deposition | HIF target genes Vegf, Hmox1, Ldh-a, Pgk, Pdk1, Glut1 mRNA [2]: specifically increased | inhibition of prolyl 4-hydroxylase (prolyl 4-hydroxylase): selective and potent inhibitor | HIF2a in ear tissue in-vivo (HIF2a): barely affected
